Like-named read-outs stand apart in the source and are kept apart here. Each block holds one compound with its values, some of them ahead of it.
Legend:
[1] = tested on: Experimental autoimmune encephalomyelitis (EAE); assay: EAE clinical score in immunized mice, osmotic pump treatment; format: in vivo, female SJL/J mice; settings: from day 9 postimmunization
S1PR2 = molecular target: T1, S1PR2 (Homo sapiens, UniProt O95136); assay: competitive [^32P]S1P binding assay on cell membranes, S1PR2
T1 construct: purchased
Method: The test compounds were dissolved in DMSO and diluted into test samples with increasing concentrations with assay buffer. Commercial cell membranes expressing recombinant human S1PR were diluted with assay buffer to make a 20-40 μg/mL of solution. […] The plate was incubated for 60 min at room temperature with shaking and terminated by collecting the membranes onto 96-well glass fiber (GF/B) filtration plates (Millipore, Billerica, Mass.). Each filter was washed with 200 μL of assay buffer for a total of five washes. […] The IC50 values were fitted from GraphPad Prism 6 using one site Nonlinear Regression.

S1PR3 = molecular target: T2, S1PR3 (Homo sapiens, UniProt Q99500); assay: competitive [^32P]S1P binding assay on cell membranes, S1PR3
T2 construct: purchased
Method: (§1) The test compounds were dissolved in DMSO and diluted into test samples with increasing concentrations with assay buffer. Commercial cell membranes expressing recombinant human S1PR were diluted with assay buffer to make a 20-40 μg/mL of solution. […] The plate was incubated for 60 min at room temperature with shaking and terminated by collecting the membranes onto 96-well glass fiber (GF/B) filtration plates (Millipore, Billerica, Mass.). Each filter was washed with 200 μL of assay buffer for a total of five washes. The filter bound radionuclide was measured by a Beckman LS 3801 scintillation counter using Cherenkov counting. The IC50 values were fitted from GraphPad Prism 6 using one site Nonlinear Regression.

S1PR4 = molecular target: T3, S1PR4 (Homo sapiens, UniProt O95977); assay: competitive [^32P]S1P binding assay on cell membranes, S1PR4
T3 construct: purchased
T3 sequence (O95977 1-384): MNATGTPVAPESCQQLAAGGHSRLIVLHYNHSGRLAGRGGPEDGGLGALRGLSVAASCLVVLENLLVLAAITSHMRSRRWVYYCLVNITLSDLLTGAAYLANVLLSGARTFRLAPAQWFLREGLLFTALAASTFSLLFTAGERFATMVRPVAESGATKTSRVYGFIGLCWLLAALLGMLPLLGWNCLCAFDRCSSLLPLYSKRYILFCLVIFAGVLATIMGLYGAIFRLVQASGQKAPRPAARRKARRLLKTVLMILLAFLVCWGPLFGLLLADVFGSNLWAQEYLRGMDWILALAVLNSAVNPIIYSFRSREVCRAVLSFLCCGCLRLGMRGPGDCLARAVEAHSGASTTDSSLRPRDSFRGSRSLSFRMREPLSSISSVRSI
Method: as §1

S1PR1 = molecular target: T4, S1PR1 (Homo sapiens, UniProt P21453); assay: competitive [^32P]S1P binding assay on cell membranes, S1PR1
T4 construct: purchased
Method: as §1

S1PR5 = molecular target: T5, S1PR5 (Homo sapiens, UniProt Q9H228); assay: competitive [^32P]S1P binding assay on cell membranes, S1PR5
T5 construct: purchased

[2] = biodistribution study of [^11C]2c in EAE and control mice; format: in vivo, female SJL mice; settings: for tissue uptake: female, SJL, mouse, brain, other: injection
Method: A biodistribution study was conducted in female SJL EAE mice and control mice (at 9 weeks, n=4 for each group) to determine the tissue accumulation of the radiotracer post-injection of the dose.

[3] = [^32P]S1P competition, read-out: IC50 value, S1PR2 binding
[4] = [^32P]S1P competition, Table 2, read-out: IC50 S1PR2

T2 sequence (Q99500 whole entry): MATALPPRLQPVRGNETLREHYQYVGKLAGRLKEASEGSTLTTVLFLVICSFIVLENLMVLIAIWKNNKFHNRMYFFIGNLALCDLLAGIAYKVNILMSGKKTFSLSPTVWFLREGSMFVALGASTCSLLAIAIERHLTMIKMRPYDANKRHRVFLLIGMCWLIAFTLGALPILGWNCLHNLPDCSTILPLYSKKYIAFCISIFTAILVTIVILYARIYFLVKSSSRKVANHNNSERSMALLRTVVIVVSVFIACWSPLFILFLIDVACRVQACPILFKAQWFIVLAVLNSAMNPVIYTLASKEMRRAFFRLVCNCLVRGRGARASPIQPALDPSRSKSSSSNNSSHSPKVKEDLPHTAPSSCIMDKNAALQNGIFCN
T5 sequence (Q9H228 whole entry): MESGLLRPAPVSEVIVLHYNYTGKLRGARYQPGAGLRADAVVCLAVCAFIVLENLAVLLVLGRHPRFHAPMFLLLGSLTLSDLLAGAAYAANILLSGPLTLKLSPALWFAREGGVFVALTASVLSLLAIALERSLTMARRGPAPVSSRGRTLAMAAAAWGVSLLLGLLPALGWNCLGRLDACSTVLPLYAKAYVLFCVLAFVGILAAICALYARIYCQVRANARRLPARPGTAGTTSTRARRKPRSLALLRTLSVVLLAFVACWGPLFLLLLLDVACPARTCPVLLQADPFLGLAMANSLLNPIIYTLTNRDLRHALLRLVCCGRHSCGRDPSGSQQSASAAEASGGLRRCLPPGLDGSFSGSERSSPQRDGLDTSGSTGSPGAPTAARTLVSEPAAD
T1 sequence (O95136 whole entry): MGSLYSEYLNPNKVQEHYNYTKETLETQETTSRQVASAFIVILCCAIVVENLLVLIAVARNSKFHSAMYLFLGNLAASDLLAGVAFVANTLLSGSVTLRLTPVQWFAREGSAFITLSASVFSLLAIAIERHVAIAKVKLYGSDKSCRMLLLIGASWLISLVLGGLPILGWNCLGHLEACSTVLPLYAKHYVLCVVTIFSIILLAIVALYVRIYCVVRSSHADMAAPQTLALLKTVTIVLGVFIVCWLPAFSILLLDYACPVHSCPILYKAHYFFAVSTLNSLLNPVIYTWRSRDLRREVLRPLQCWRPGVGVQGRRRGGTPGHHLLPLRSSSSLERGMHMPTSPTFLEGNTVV
T4 sequence (P21453 whole entry): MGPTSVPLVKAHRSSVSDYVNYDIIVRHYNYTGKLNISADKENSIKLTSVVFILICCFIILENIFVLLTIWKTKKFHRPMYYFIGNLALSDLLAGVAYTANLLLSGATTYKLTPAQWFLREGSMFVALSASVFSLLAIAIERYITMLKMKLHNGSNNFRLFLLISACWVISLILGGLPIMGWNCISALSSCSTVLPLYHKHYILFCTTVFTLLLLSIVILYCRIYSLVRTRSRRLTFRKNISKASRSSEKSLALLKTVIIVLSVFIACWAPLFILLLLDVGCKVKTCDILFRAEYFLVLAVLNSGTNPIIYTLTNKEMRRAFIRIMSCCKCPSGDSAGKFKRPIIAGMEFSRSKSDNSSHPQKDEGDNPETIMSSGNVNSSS

IC50 (S1PR2; [3]): 0.0057 ± 0.0005 µM
Compound: COc1ccc(NC(=O)Cn2c(=O)c3ccccc3n(CC(=O)Nc3cc(Cl)c(OC)cc3OC)c2=O)cc1 [Compound 2c]
EAE disease course (clinical score) ([1]; 1 mg/kg, p<0.0002): significant improvement of EAE disease course | EAE disease course (clinical score) ([1]; 5 mg/kg, p<0.0001): significant improvement of EAE disease course

IC50 (S1PR2; [3]): 0.189 µM | melting point: 79 to 80 °C
Compound: CCC(CC)CC1(O)CCN(C(=O)Nc2cc(Oc3ccc(F)cc3)cc(Oc3ccc(OC)cc3)c2)CC1 [Compound 28a, 4-(2-Ethylbutyl)-N-(3-(4-fluorophenoxy)-5-(4-methoxyphenoxy)phenyl)-4-hydroxypiperidine-1-carboxamide]

IC50 (S1PR3): > 1 µM | IC50 (S1PR4): > 1 µM | IC50 (S1PR1): > 1 µM | IC50 (S1PR2; [4]): 0.0385 ± 0.0063 µM | IC50 (S1PR5): > 1 µM | melting point: 79 to 81 °C
Compound: CC(C)CC1(O)CCN(C(=O)Nc2cc(Oc3ccc(F)cc3)cc(Sc3ccc(S(C)(=O)=O)cc3)c2)CC1 [Compound 28g, N-(3-(4-Fluorophenoxy)-5-((4-(methylsulfonyl)phenyl)-thio)phenyl)-4-hydroxy-4-isobutylpiperidine-1-carboxamide]

melting point: 81 to 83 °C
Compound: CC(C)CC1(O)CCN(C(=O)Nc2cc(Oc3ccc(F)cc3)cc(Oc3ccc(C(=O)NCCF)cc3)c2)CC1 [Compound 28f, N-(3-(4-((2-fluoroethyl)carbamoyl)phenoxy)-5-(4-fluorophenoxy)phenyl)-4-hydroxy-4-isobutylpiperidine-1-carboxamide]

IC50 (S1PR3): > 1 µM | IC50 (S1PR4): > 1 µM | IC50 (S1PR1): > 1 µM | IC50 (S1PR5): > 1 µM | melting point: 81 to 83 °C
Compound: CCC(CC)CC1(O)CCN(C(=O)Nc2cc(Oc3ccc(F)cc3)cc(Oc3ccc4c(c3)CCNC4=O)c2)CC1 [Compound 28c, 4-(2-Ethylbutyl)-N-(3-(4-fluorophenoxy)-5-((1-oxo-1,2,3,4-tetrahydroisoquinolin-6-yl)oxy)phenyl)-4-hydroxypiperidine-1-carboxamide]

uptake in brain, blood, heart, lung, and pancreas ([2]; EAE mice versus control): increased uptake | tissue uptake ([2]; EAE mice): 0.699 %ID/g | tissue uptake ([2]; control mice): 0.452 %ID/g
Compound: COc1ccc(NC(=O)Cn2c(=O)c3ccccc3n(CC(=O)Nc3cc(Cl)c(OC)cc3OC)c2=O)cc1 [[^11C]2c]

IC50 (S1PR3): > 1 µM | IC50 (S1PR4): > 1 µM | IC50 (S1PR1): > 1 µM | IC50 (S1PR5): > 1 µM | melting point: 80 to 82 °C
Compound: CCC(CC)CC1(O)CCN(C(=O)Nc2cc(Oc3ccc(F)cc3)cc(Oc3ccc4c(c3)CCN(C)C4=O)c2)CC1 [Compound 28b, 4-(2-Ethylbutyl)-N-(3-(4-fluorophenoxy)-5-((2-methyl-1-oxo-1,2,3,4-tetrahydroisoquinolin-6-yl)oxy)phenyl)-4-hydroxypiperidine-1-carboxamide]

IC50 (S1PR3; Table 5): > 1 µM | IC50 (S1PR1; Table 5): > 1 µM | IC50 (S1PR2; Table 5, read-out: IC50 S1PR2): 0.03 ± 0.004 µM
Compound: CCC(CC)CC1(O)CCN(C(=O)Nc2cc(Oc3ccc(F)cc3)cc(Oc3ccc4c(c3)CCNC4=O)c2)CC1 [TZ57-090]

IC50 (S1PR3; Table 5): > 1 µM | IC50 (S1PR1; Table 5): > 1 µM | IC50 (S1PR2; Table 5, read-out: IC50 S1PR2): 0.195 ± 0.036 µM
Compound: CC(C)CC1(O)CCN(C(=O)Nc2cc(Oc3ccc(F)cc3)cc(Oc3ccc(C(=O)NCCF)cc3)c2)CC1 [TZ57-029]

IC50 (S1PR3; Table 5): > 1 µM | IC50 (S1PR4; Table 5): > 1 µM | IC50 (S1PR1; Table 5): > 1 µM | IC50 (S1PR2; Table 5, read-out: IC50 S1PR2): 0.0063 ± 0.0009 µM | IC50 (S1PR5; Table 5): > 1 µM
Compound: COc1cc(OC)c(NC(=O)Cn2c(=O)n(CC(=O)Nc3ccccc3OC)c(=O)c3ccccc32)cc1Cl [TZ59-134, N-(5-Chloro-2,4-dimethoxyphenyl)-2-(3-(2-((2-methoxyphenyl)amino)-2-oxoethyl)-2,4-dioxo-3,4-dihydroquinazolin-1(2H)-yl)acetamide]

IC50 (S1PR3; Table 5): > 1 µM | IC50 (S1PR1; Table 5): > 1 µM | IC50 (S1PR2; Table 5, read-out: IC50 S1PR2): 0.296 ± 0.032 µM
Compound: CCC(CC)CC1(O)CCN(C(=O)Nc2cc(Oc3ccc(S(C)(=O)=O)cc3)cc(C(F)(F)F)c2)CC1 [TZ51-033]

IC50 (S1PR3; Table 5): > 1 µM | IC50 (S1PR1; Table 5): > 1 µM | IC50 (S1PR2; Table 5, read-out: IC50 S1PR2): 0.27 ± 0.072 µM
Compound: CC(C)CC1(O)CCN(C(=O)Nc2cc(Oc3ccc(S(C)(=O)=O)cc3)cc(C(F)(F)F)c2)CC1 [TZ51-035]

IC50 (S1PR3): > 1 µM | IC50 (S1PR4): > 1 µM | IC50 (S1PR1): > 1 µM | IC50 (S1PR2; [4]): 0.0667 ± 0.0078 µM | IC50 (S1PR5): > 1 µM | melting point: 79 to 82 °C
Compound: CCC(CC)CC1(O)CCN(C(=O)Nc2cc(Oc3ccc(F)cc3)cc(Oc3ccc(C(=O)NCCF)cc3)c2)CC1 [Compound 28d, 4-(2-Ethylbutyl)-N-(3-(4-((2-fluoroethyl)carbamoyl)phenoxy)-5-(4-fluorophenoxy)phenyl)-4-hydroxypiperidine-1-carboxamide]

IC50 (S1PR3): > 1 µM | IC50 (S1PR4): > 1 µM | IC50 (S1PR1): > 1 µM | IC50 (S1PR2; [3]): 0.0146 µM | IC50 (S1PR5): > 1 µM | melting point: 78 to 80 °C
Compound: CCC(CC)CC1(O)CCN(C(=O)Nc2cc(Oc3ccc(F)cc3)cc(Sc3ccc(S(C)(=O)=O)cc3)c2)CC1 [Compound 28e, 4-(2-Ethylbutyl)-N-(3-(4-fluorophenoxy)-5-((4-(methylsulfonyl)phenyl)thio)phenyl)-4-hydroxypiperidine-1-carboxamide]

IC50 (S1PR2; [^32P]S1P competition, IC50 ± SD, second Table 1, read-out: S2PR2 IC50): 0.362 µM | melting point: 108 to 111 °C
Compound: CCC(CC)CC1(O)CCN(C(=O)Nc2cc(Oc3ccc(F)cc3)cc(C(F)(F)F)c2)CC1 [Compound 17c, 4-(2-Ethylbutyl)-N-(3-(4-fluorophenoxy)-5-(trifluoromethyl)phenyl)-4-hydroxypiperidine-1-carboxamide]

Compound: Cc1nn(C)c2nc(NNC(=O)Nc3cc(Cl)nc(Cl)c3)cc(C(C)C)c12 [JTE-013, reference compound]
IC50 (S1PR3; [^32P]S1P competition, Table 2): > 1 µM | IC50 (S1PR4; [^32P]S1P competition, Table 2): > 1 µM | IC50 (S1PR1; [^32P]S1P competition, Table 2): > 1 µM | IC50 (S1PR5; [^32P]S1P competition, Table 2): > 1 µM

IC50 (S1PR3; Table 5): > 1 µM | IC50 (S1PR1; Table 5): > 1 µM | IC50 (S1PR2; Table 5, read-out: IC50 S1PR2): 0.418 ± 0.118 µM
Compound: CCC(CC)CC1(O)CCN(C(=O)Nc2cc(Oc3ccc(OCCF)cc3)cc(Oc3ccc(S(C)(=O)=O)cc3)c2)CC1 [TZ57-034]

IC50 (S1PR3; Table 5): > 1 µM | IC50 (S1PR1; Table 5): > 1 µM | IC50 (S1PR2; Table 5, read-out: IC50 S1PR2): 0.525 ± 0.119 µM
Compound: CC(C)CC1(O)CCN(C(=O)Nc2cc(Oc3ccc(OCCF)cc3)cc(Oc3ccc(S(C)(=O)=O)cc3)c2)CC1 [TZ57-033]

From US20200369626A1 (Washington University, priority 2019, published 2020)
